According to publication PMC8795197, “Safety and activity of WX-0593 (Iruplinalkib) in patients with ALK- or ROS1-rearranged advanced non-small cell lung cancer: a phase 1 dose-escalation and dose-expansion trial” (Signal Transduction and Targeted Therapy, 2022):
“Also recorded” adds a separate entry of the source.

Legend:
[1] = Single-dose toxicity study (acute toxicity)
[2] = test system: Ba/F3 CD74-ROS1-L1951R; assay: Growth of transfected Ba/F3 cells (CellTiter-Glo, 3 days); type: cell-based; conditions: Mus musculus, BaF3
Method: (§1) Harvest cells during the logarithmic growth period and count cells using blood counting chamber. Adjust cell concentration with culture medium. Add 90µl cell suspensions to two 96-well plates to the final cell density as described before. Incubate the plate overnight in humidified incubator at 37℃ with 5% CO2. Dispense 10µl drug solution (10×) to each well (triplicate for each concentration), and the DMSO final concentration in culture medium is 0.1% [v/v]. Culture the plates for 3 days.On Day 3, Read luminescent using Multi Label Reader. The software of GraphPad Prism was used to calculate IC50. The graphical curves were fitted using a nonlinear regression model with a sigmoidal dose response.

[3] = test system: Ba/F3 SLC34A2-ROS1; assay: as above; type: cell-based; conditions: Mus musculus, BaF3
Method: as §1

[4] = test system: Ba/F3 CD74-ROS1-D2033N; assay: as above; type: cell-based; conditions: Mus musculus, BaF3
Method: as §1

[5] = test system: Ba/F3 SLC34A2-ROS1-G2032R; assay: as above; type: cell-based; conditions: Mus musculus, BaF3
Method: as §1

[6] = test system: Ba/F3 CD74-ROS1-S1986F; assay: as above; type: cell-based; conditions: Mus musculus, BaF3
Method: as §1

[7] = test system: Ba/F3 SLC34A2-ROS1-L2026M; assay: as above; type: cell-based; conditions: Mus musculus, BaF3
Method: as §1

[8] = test system: Ba/F3 CD74-ROS1-S1986Y; assay: as above; type: cell-based; conditions: Mus musculus, BaF3
Method: as §1

[9] = biological target: CYP3A4 (Homo sapiens, UniProt P08684); assay: Metabolic enzyme phenotyping (chemical inhibitors, recombinant human P450); type: in vitro ADME
Description: Other isoenzymes (CYP1A2, CYP2B6, CYP2C8, CYP2C9, CYP2C19 and CYP2D6) played a secondary or insignificant role in the formation of M1, M2, and M5.

[10] = Excretion and mass balance after [14C]WX-0593, bile-duct cannulation (BDC); type: in vivo; conditions: 0-72 hours, BDC rats
[11] = biological target: ALK wild type (Homo sapiens, UniProt Q9UM73); assay: In vitro enzyme inhibition study; type: biochemical; conditions: difference in inhibitory activity within 3 times
Description: (§2) The inhibitory activities were low for other serine, threonine, and tyrosine […], except for the EGFR wild type, within the tested concentration range.

[12] = biological target: ALK mutant L1196M (Homo sapiens, UniProt Q9UM73, L1196M); assay: In vitro enzyme inhibition study; type: biochemical; conditions: difference in inhibitory activity within 3 times
Description: as §2

[13] = biological target: EGFR L858R/T790M (Homo sapiens, UniProt P00533, L858R/T790M); assay: In vitro enzyme inhibition study; type: biochemical; conditions: difference in inhibitory activity within 3 times
Description: as §2

[14] = biological target: ALK mutant C1156Y (Homo sapiens, UniProt Q9UM73, C1156Y); assay: In vitro enzyme inhibition study; type: biochemical; conditions: difference in inhibitory activity within 3 times
Description: as §2

[15] = test system: Ba/F3 (EML4-ALK-WT); assay: Cell proliferation inhibition assay; type: cell-based

Chain of ALK wild type (Q9UM73 19-1620): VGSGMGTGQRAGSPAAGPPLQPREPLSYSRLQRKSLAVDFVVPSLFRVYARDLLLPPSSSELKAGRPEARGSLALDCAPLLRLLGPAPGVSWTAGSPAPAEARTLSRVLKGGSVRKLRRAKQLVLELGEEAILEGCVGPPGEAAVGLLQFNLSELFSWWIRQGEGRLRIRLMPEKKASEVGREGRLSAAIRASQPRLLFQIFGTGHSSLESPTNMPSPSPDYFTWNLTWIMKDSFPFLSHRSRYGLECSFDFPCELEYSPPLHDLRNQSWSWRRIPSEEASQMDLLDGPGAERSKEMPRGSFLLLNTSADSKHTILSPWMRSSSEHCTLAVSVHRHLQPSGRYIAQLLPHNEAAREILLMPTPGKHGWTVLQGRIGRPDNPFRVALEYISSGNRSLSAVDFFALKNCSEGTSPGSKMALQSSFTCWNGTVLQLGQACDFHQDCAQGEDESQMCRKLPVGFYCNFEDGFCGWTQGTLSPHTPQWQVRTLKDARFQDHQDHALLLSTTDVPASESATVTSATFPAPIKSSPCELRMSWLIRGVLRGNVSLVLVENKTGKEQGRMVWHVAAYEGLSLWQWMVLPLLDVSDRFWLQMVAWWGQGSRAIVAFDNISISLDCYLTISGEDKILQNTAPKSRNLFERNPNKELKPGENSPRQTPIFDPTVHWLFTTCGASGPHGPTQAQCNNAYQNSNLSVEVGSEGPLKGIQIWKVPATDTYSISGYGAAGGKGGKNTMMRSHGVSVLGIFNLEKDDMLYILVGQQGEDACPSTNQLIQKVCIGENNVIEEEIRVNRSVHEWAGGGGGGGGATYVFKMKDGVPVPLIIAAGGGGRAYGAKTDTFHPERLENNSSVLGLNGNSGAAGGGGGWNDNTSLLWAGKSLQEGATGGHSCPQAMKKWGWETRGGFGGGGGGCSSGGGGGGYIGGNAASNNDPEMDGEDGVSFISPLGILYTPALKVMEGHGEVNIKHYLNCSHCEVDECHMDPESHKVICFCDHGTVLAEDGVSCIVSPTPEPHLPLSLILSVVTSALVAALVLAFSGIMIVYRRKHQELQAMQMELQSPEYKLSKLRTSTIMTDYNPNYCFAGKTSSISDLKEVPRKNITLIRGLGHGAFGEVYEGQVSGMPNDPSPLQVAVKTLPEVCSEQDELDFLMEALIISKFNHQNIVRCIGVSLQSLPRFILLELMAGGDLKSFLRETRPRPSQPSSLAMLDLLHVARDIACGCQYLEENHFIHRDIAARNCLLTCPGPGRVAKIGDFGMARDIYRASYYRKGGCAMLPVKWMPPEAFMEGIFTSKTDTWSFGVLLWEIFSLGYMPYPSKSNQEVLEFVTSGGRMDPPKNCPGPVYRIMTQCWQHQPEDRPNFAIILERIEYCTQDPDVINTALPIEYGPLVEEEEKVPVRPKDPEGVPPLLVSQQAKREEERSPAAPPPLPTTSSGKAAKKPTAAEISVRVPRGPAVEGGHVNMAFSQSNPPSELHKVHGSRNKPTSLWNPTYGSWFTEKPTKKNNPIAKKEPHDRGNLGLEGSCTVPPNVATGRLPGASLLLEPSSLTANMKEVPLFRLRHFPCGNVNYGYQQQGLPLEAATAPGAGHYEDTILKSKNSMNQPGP
Chain of ALK mutant L1196M (Q9UM73 19-1620 L1196M): as the sequence (Q9UM73 19-1620) above, with L1178M counted along it
Chain of ALK mutant C1156Y (Q9UM73 19-1620 C1156Y): as the sequence (Q9UM73 19-1620) above, with C1138Y counted along it
Chain of CYP3A4 (P08684 whole entry): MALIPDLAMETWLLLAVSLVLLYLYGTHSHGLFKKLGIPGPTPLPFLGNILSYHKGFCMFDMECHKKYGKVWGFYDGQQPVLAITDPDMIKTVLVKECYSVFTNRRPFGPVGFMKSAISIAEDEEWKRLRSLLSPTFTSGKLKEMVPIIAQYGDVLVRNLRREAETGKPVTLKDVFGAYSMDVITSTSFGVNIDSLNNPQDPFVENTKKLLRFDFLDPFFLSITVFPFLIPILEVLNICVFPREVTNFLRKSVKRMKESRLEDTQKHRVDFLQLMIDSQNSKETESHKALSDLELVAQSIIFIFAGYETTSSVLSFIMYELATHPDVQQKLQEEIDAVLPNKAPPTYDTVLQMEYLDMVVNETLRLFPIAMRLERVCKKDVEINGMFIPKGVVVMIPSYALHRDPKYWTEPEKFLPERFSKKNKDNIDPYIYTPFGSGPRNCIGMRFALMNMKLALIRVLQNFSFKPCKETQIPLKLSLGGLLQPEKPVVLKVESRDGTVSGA
Chain of EGFR L858R/T790M (P00533 25-1210 T790M/L858R): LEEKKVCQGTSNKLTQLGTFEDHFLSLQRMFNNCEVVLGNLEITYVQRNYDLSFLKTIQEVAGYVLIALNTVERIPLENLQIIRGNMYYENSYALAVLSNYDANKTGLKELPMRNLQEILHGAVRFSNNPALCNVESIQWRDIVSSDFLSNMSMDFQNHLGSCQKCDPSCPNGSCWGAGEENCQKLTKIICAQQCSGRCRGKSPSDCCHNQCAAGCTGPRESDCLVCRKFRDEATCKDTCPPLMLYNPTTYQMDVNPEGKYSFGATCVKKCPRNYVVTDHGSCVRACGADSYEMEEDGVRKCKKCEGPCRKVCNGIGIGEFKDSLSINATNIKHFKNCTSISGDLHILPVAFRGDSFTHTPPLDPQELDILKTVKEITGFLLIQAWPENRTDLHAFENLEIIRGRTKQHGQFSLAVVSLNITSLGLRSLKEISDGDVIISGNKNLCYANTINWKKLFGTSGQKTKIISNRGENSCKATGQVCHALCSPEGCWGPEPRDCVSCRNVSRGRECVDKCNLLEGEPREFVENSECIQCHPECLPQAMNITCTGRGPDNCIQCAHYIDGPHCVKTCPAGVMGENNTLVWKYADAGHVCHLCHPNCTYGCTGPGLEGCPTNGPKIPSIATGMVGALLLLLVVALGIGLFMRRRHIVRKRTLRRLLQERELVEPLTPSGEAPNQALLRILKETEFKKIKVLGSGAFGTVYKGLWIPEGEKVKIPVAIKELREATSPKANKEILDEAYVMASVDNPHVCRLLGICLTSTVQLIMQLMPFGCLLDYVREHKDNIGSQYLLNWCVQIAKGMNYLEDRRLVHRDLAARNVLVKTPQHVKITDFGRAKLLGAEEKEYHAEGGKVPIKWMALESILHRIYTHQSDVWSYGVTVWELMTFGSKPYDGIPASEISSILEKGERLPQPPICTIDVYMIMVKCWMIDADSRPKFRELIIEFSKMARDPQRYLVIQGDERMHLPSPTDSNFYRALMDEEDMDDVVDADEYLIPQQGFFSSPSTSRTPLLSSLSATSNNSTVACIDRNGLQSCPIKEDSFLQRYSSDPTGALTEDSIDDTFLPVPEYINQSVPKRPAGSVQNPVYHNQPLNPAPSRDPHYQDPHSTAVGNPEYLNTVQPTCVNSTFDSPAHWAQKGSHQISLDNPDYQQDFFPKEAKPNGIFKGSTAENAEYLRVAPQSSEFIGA

COc1cc(N2CCC3(CCN(C)CC3)CC2)ccc1Nc1ncc(Cl)c(Nc2ccccc2P(C)(C)=O)n1 [WX-0593]
drug exposure at MTD as multiple of that at the effective dose ([1]; female animals): 13.7 times | drug exposure at MTD as multiple of that at the effective dose ([1]; male animals): 9.5 times | IC50 [2]: 626 nM | IC50 [3]: 11 nM | IC50 [4]: 33.8 nM | IC50 [5]: 584 nM | IC50 [6]: 22.4 nM | IC50 [7]: 12 nM | IC50 [8]: 15.9 nM | major metabolic enzyme (formation of M1, M2, M5) [9]: primarily metabolized by CYP3A4; also recorded: CYP3A4 is the major metabolic enzyme | dose excreted in bile [10]: 30.56% | dose excreted in feces [10]: 32.04% | dose excreted in urine [10]: 30.73% | dose in cage rinses and washes [10]: 1.43% | mean radioactivity recovery rate [10]: 94.75% | inhibitory activity compared with brigatinib [11]: comparable with the activity of brigatinib; also recorded: comparable to brigatinib | inhibitory activity compared with brigatinib [12]: comparable with the activity of brigatinib; also recorded: comparable to brigatinib | inhibitory activity compared with brigatinib [13]: comparable with the activity of brigatinib; also recorded: comparable to brigatinib | inhibitory activity compared with brigatinib [14]: comparable with the activity of brigatinib; also recorded: comparable to brigatinib | growth inhibition [15]: significantly inhibits the growth
